What was measured:
NF-κB = NF-κB luciferase reporter assay in RAW 264.7 macrophages; type: cell-based; details: Mus musculus, RAW264.7; RAW 264.7 reporter cells, 2 hour pretreatment, 200 ng/ml LPS for 3 hours; read-out: NF-kB inhibitory activity IC50
Procedure: RAW 264.7 cells stably expressing a 3× NFkB response elemement-drive luciferase reporter were seeded into 96 well plates in sera-free medium (Optimem) 18 hours prior to compound application. Compounds of the invention were prepared by first making 100 mM stock solutions in EtOH. Stock solutions were then diluted 1:100 in low LPS FBS (Gemini BenchMark 100-106), mixed vigorously and allowed to incubate at room temperature for 30 minutes. 1:2 serial dilutions were then made in FBS supplemented with 1% EtOH, mixed vigorously, and again allowed to incubate at room temperature for 30 minutes before adding to RAW 264.7 reporter cells (final concentrations: 10% FBS, 100 uM highest compound dilution, 0.1% EtOH) for a 2 hour pretreatment prior to stimulation with LPS. Cells were then stimulated with 200 ng/ml LPS or vehicle control for 3 hours in the presence of the compounds of the invention. A set of six vehicles was left unstimulated with LPS in order to measure the assay floor. AlamarBlue viability dye (Invitrogen) was added to cells simultaneously with the delivery of LPS (final AlamarBlue concentration of 10%).
After the 3 h incubation period with LPS, cell viability was measured by reading fluorescence (excitation 550 nm, emission 595 nm) with a Perkin Elmer Victor V plate reader. Then cell media was aspirated from each well. Luciferase signal was then developed by addition of the Britelite Plus reagent (Perkin Elmer). Luciferase activity was measured with the Perkin Elmer Victor V plate reader. NF-κB activity was expressed as a percent of the vehicle control wells (stimulated with LPS). Compounds were tested at 6 dose point titrations in triplicate to determine IC50 values. Table 1 summarizes the […] values for a number of bis-fatty acid conjugates in this NF-κB luciferase reporter assay.

[1] = test system: ApoB secretion in HepG2 cells; assay: ApoB secretion in HepG2 cells (ELISA); type: cell-based; details: Homo sapiens, incubated for 16 hours, FIG. 1, read-out: IC50 (concentration at which 50% of ApoB secretion is inhibited)
Procedure: HepG2 cells (ATCC) are seeded at 25,000 cells per well in collagen-coated 96-well plates in growth media (DMEM with 10% fetal bovine serum). The following day, bis-fatty acid conjugates are complexed to lipoprotein-deficient fetal bovine serum at the appropriate concentration. Growth media is then removed from and the HepG2 cells are washed once with PBS. The lipoprotein-deficient FBS with the complexed bis-fatty acid conjugates is added to DMEM for a final 10% concentration. Each concentration of bis-fatty acid is tested in triplicate. Cells are incubated for 16 hours with the bis-fatty acid. Alamar Blue® (Invitrogen) is then added to the media to determine cell viability per the manufacturer's instructions. Two hours after Alamar Blue® addition, the media is removed and placed in a black 96-well plate. The plate is then read at 550 nm/590 nm to determine cell viability. The media is then used to determine ApoB concentrations using ELISA kits (Mabtech AB). Percent inhibition of ApoB secretion is determined by normalizing data to vehicle treated wells. For a given compound, an IC50 (concentration at which 50% of ApoB secretion is inhibited) can also be determined by using a 4 parameter-fit inhibition curve model (Graph Pad Prism®).

Row | IC50 (NF-κB) [µM] | IC50 [1] [µM] | SMILES
1 | < 200 |  | CC/C=C\C/C=C\C/C=C\C/C=C\C/C=C\CCCC(=O)N[C@@H](CCCCNC(=O)CCCC[C@@H]1CCSS1)C(=O)O [I-107, (S)-6-((R)-5-[1,2]dithiolan-3-yl-pentanoylamino)-2-((5Z,8Z,11Z,14Z,17Z)-icosa-5,8,11,14,17-pentaenoylamino)-hexanoic acid]
2 | < 50 |  | CC/C=C\C/C=C\C/C=C\C/C=C\C/C=C\C/C=C\CCC(=O)N[C@H](C(=O)OC)[C@@H](C)OC(=O)[C@H](C)NC(=O)CCC/C=C\C/C=C\C/C=C\C/C=C\C/C=C\CC [I-65, (2S,3R)-methyl 2-((4Z,7Z,10Z,13Z,16Z,19Z)-docosa-4,7,10,13,16,19-hexaenamido)-3-((S)-2-((5Z,8Z,11Z,14Z,17Z)-icosa-5,8,11,14,17-pentaenamido)propanoyloxy)butanoate]
3 | < 50 | 9.5 | CC/C=C\C/C=C\C/C=C\C/C=C\C/C=C\C/C=C\CCC(=O)N[C@@H](C)C(=O)O[C@H](C)[C@H](NC(=O)CCC/C=C\C/C=C\C/C=C\C/C=C\C/C=C\CC)C(=O)OC [I-66, (2S,3R)-methyl 3-((S)-2-((4Z,7Z,10Z,13Z,16Z,19Z)-docosa-4,7,10,13,16,19-hexaenamido)propanoyloxy)-2-((5Z,8Z,11Z,14Z,17Z)-icosa-5,8,11,14,17-pentaenamido)butanoate]
4 | < 200 |  | CC/C=C\C/C=C\C/C=C\C/C=C\C/C=C\C/C=C\CCC(=O)N1CCN(C(=O)CCC/C=C\C/C=C\C/C=C\C/C=C\C/C=C\CC)CC1 [I-67, (4Z,7Z,10Z,13Z,16Z,19Z)-1-[4-((5Z,8Z,11Z,14Z,17Z)-icosa-5,8,11,14,17-pentaenoyl)-piperazin-1-yl]-docosa-4,7,10,13,16,19-hexaen-1-one]

The remaining lines, values behind:

Row | SMILES | IC50 (NF-κB) [µM] | IC50 [1] [µM]
5 | CC/C=C\C/C=C\C/C=C\C/C=C\C/C=C\C/C=C\CCC(=O)NCCNC(=O)CC/C=C\C/C=C\C/C=C\C/C=C\C/C=C\C/C=C\CC [I-1, (4Z,7Z,10Z,13Z,16Z,19Z)-docosa-4,7,10,13,16,19-hexaenoic acid [2-((4Z,7Z,10Z,13Z,16Z,19Z)-docosa-4,7,10,13,16,19-hexaenoylamino)-ethyl]-amide] | < 200 | 
6 | CC/C=C\C/C=C\C/C=C\C/C=C\C/C=C\C/C=C\CCC(=O)NCCN(C)CCNC(=O)CCC/C=C\C/C=C\C/C=C\C/C=C\C/C=C\CC [I-39, (4Z,7Z,10Z,13Z,16Z,19Z)-docosa-4,7,10,13,16,19-hexaenoic acid (2-{[2((5Z,8Z,11Z,14Z,17Z)-icosa-5,8,11,14,17-pentaenoylamino)-ethyl]-methyl-amino}-ethyl)-amide] | < 50 | 
7 | CC/C=C\C/C=C\C/C=C\C/C=C\C/C=C\C/C=C\CCC(=O)O [DHA, docosahexaenoic acid, reference compound] | > 200 | 
8 | CC/C=C\C/C=C\C/C=C\C/C=C\C/C=C\C/C=C\CCC(=O)N[C@@H](CCCCNC(=O)CCC/C=C\C/C=C\C/C=C\C/C=C\C/C=C\CC)C(=O)O [I-45, (S)-2-((4Z,7Z,10Z,13Z,16Z,19Z)-docosa-4,7,10,13,16,19-hexaenoylamino)-6-((5Z,8Z,11Z,14Z,17Z)-icosa-5,8,11,14,17-pentaenoylamino)-hexanoic acid] | < 50 | 
9 | CC/C=C\C/C=C\C/C=C\C/C=C\C/C=C\C/C=C\CCC(=O)NCCNC(=O)CCC/C=C\C/C=C\C/C=C\C/C=C\C/C=C\CC [I-37, (4Z,7Z,10Z,13Z,16Z,19Z)-docosa-4,7,10,13,16,19-hexaenoic acid [2-((5Z,8Z,11Z,14Z,17Z)-icosa-5,8,11,14,17-pentaenoylamino)-ethyl]-amide] | < 200 | 
10 | CC/C=C\C/C=C\C/C=C\C/C=C\C/C=C\C/C=C\CCC(=O)NCCN(C)CCNC(=O)CC/C=C\C/C=C\C/C=C\C/C=C\C/C=C\C/C=C\CC [I-2, (4Z,7Z,10Z,13Z,16Z,19Z)-docosa-4,7,10,13,16,19-hexaenoic acid (2-{[2-((4Z,7Z,10Z,13Z,16Z,19Z)-docosa-4,7,10,13,16,19-hexaenoylamino)-ethyl]-methyl-amino}-ethyl)-amide] | < 50 | 
11 | CC/C=C\C/C=C\C/C=C\C/C=C\C/C=C\CCCC(=O)O [EPA, eicosapentaenoic acid, reference compound] | > 200 | 

Reference: US20130190327A1, “BIS-FATTY ACID CONJUGATES AND THEIR USES” (CATABASIS PHARMACEUTICALS INC, priority 2010, published 2013)
